In patent publication US12714680B2, “Composition for anti-aging or skin regeneration comprising Okanin” (POSCO CO., LTD, priority 2020, dated 2026):

Legend:
Assay type in all cases: cell-based
[1] = tested on: ERK; assay: Activation (phosphorylation) of ERK by Western blotting in HaCaT cells; details: serum-free medium, FIG. 3
Experimental: (§1) It is well known that the activities of extracellular signal-regulated kinase (ERK) and protein kinase B (AKT) transmit signals necessary for cell growth and survival by the activities of an EGFR. In addition, in Experimental Example 1, it was observed that Okanin generated signals due to activation of the EGFR in the cells of the biosense system for measuring the activities of the EGFR. Accordingly, it was measured whether the activities of the EGFR were induced by Okanin to the activities of the ERK and AKT. Specifically, HaCaT cells were cultured in a serum-free medium, treated with 10 μM. of Okanin for 10 minutes, 30 minutes and 60 minutes, respectively, and, thereafter, phosphorylated and activated ERK and AKT were analyzed by Western blotting. As antibodies, a phosphorylation antibody as a marker of activated ERK and AKT, and a general antibody for measuring all of them were used, respectively.

[2] = tested on: c-jun; assay: Gene expression change by real-time quantitative PCR in HaCaT cells: c-jun; details: 10 μM Okanin, 1 hour, serum-free, corrected with β-actin, FIG. 4
Excerpt: (§2) Signaling by an EGFR induces the expression of genes important for cell growth and survival through important signaling mediator proteins such as ERK and AKT. The egr1, c-myc, c-jun and c-fos genes are regulated by the EGFR and are well known as genes that promote cell growth and survival. […] Specifically, Tri-reagent was used for mRNA extraction, cDNA was created by a reverse transcription polymerase chain reaction (RT-PCR) using a poly-A primer and a reverse transcriptase, and real-time quantitative PCR was used to measure the amount of each mRNA. The amount of each mRNA was corrected with the amount of β-actin, which is a constitutive gene.

[3] = tested on: c-myc; assay: Gene expression change by real-time quantitative PCR in HaCaT cells: c-myc; details: 10 μM Okanin, 1 hour, serum-free, corrected with β-actin, FIG. 4
Excerpt: as §2

[4] = tested on: HaCaT cells; assay: Wound healing assay; details: 1 μM Okanin, culture for 6 days, serum-free; vs negative control; significant difference from the 3rd day (p<0.05); FIGS. 6A, 6B
Experimental: The cell growth promoting effect of Okanin was confirmed through Wound healing assay. Specifically, after fully culturing HaCaT cells in a 12-well plate, cells on a certain area were scraped off using a yellow tip to form a wound area, changed to a serum-free medium, and treated with 1 μM of Okanin.

[5] = target: EGFR (Homo sapiens, UniProt P00533); assay: EGFR activity measurement biosensor system (EGFP-SH2 fluorescence signals); details: 100 μM Okanin; cells cultured in serum-free medium 24 hours; compared to DMSO control; FIG. 1
Chain of EGFR (P00533 25-1210, species assumed): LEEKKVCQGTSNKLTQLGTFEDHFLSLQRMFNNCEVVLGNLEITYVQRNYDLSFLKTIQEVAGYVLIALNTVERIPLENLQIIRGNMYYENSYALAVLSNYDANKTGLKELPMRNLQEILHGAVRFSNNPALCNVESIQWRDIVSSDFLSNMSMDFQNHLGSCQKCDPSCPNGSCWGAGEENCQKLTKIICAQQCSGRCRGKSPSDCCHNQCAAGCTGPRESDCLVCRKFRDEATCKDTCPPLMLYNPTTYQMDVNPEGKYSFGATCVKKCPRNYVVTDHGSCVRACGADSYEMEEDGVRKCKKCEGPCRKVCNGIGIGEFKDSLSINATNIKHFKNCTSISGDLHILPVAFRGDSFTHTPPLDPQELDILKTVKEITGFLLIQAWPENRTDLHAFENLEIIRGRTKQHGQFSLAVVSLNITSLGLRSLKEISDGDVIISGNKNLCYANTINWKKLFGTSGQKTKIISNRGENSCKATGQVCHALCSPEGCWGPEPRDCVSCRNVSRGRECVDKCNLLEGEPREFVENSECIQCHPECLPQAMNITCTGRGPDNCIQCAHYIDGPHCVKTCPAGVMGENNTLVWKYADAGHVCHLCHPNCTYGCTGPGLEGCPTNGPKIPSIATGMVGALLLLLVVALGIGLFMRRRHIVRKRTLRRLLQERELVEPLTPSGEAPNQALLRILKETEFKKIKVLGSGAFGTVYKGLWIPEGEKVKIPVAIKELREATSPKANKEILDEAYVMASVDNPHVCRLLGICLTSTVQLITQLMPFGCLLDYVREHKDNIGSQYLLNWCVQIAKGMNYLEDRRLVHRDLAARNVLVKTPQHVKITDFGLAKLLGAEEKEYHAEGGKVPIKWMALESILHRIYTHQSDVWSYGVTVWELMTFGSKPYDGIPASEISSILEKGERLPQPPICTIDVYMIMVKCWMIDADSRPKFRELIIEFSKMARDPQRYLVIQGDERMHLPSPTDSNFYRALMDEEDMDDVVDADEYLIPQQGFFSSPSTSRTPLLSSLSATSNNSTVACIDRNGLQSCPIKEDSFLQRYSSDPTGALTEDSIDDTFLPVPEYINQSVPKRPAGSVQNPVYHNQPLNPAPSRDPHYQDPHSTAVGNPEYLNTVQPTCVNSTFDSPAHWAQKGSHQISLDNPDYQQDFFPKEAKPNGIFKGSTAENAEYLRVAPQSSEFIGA
Experimental: In addition, by using the feature that, when the activities of the EGFR continue to be maintained, the EGFR is internalized into the cell, the cell of the biosensor system that may measure the activities of the EGFR was used in the present experimentation (see Korean Laid-open Patent Publication No. 2019-0014340). […] After culturing the cells in a serum-free medium for 24 hours, the cells were treated with Okanin.

[6] = tested on: egr1; assay: Gene expression change by real-time quantitative PCR in HaCaT cells: egr1; details: 10 μM Okanin, 1 hour, serum-free, corrected with β-actin, FIG. 4
Excerpt: as §2

[7] = tested on: AKT; assay: Activation (phosphorylation) of AKT by Western blotting in HaCaT cells; details: serum-free medium, FIG. 3
Experimental: as §1

[8] = tested on: HaCaT cells; assay: Cytotoxicity depending on the concentrations of Okanin (cell viability)
Experimental: The cytotoxicity of Okanin was measured using HaCaT cells as keratinocytes. When cells are treated with MTT tetrazolium which is a yellow water-soluble substrate, such a substrate is reduced to MTT formazan by mitochondrial enzymes, and the color changes to blue-purple. That is, since the blue-violet color appears darker as the number of living cells increases, the blue-violet absorbance at a wavelength of 540 nm reflects the concentration of living cells. Specifically, after culturing cells to fill each well of a 96-well plate, the cells were treated with Okanin at concentrations of 0, 10, 25, 50 and 100 μM, and cultured for 24 hours and 48 hours in a 5% CO2 incubator at 37° C. Thereafter, cell viability was measured using MIT reagent. A control group not treated with Okanin (0 μM) was treated with the same amount of the solvent DMSO.

[9] = tested on: HaCaT cells; assay: Resistance to cell damage induced by UVB (cell viability, CCK-8); details: 1 μM Okanin, UVB 500 mJ/cm2, serum-free, negative control about 40%, p<0.05, FIG. 7
Experimental: Among the ultraviolet wavelengths, UVB wavelengths corresponding to 280 to 315 nm penetrate the epidermal layer where many keratinocytes exist to cause cell damage. […] The solvent DMSO was used as a negative control group, and the cell viability was measured using the CCK-8 method used in Experimental Example 5.

[10] = tested on: c-fos; assay: Gene expression change by real-time quantitative PCR in HaCaT cells: c-fos; details: 10 μM Okanin, 1 hour, serum-free, corrected with β-actin, FIG. 4
Excerpt: as §2

[11] = tested on: HaCaT cells; assay: Growth and proliferation of keratinocytes (CCK-8 assay); details: 24 hours, serum-free, vs negative control (DMSO), p<0.05, FIG. 5
Experimental: Cell counting kit-8 (CCK-8) is a water-soluble tetrazolium salt reagent called WST-8 and forms orange-colored water-soluble Formazan by dehydrogenase in the mitochondria of living cells. […] After cultured for 24 hours, the cells were treated with CCK8, and the cell growth was analyzed by measuring absorbance at 450 nm.

EGFR activation (fluorescence signals of biosensor cells) [5]: activated
SMILES: O=C(/C=C/c1ccc(O)c(O)c1)c1ccc(O)c(O)c1O [Okanin, 2′,3,3′,4,4′-pentahydroxychalcone]
induction of the activities of ERK ([1]; 10 μM Okanin for 10 minutes): sufficiently induced
time within which ERK was rapidly activated ([1]; 10 μM Okanin): ≤ 30 min
c-jun mRNA [2]: increased
c-myc mRNA [3]: increased
filling of the wound area [4]: more quickly filled
egr1 mRNA [6]: increased
induction of the activities of AKT ([7]; 10 μM Okanin for 10 minutes): sufficiently induced
time within which AKT was rapidly activated ([7]; 10 μM Okanin): ≤ 30 min
cytotoxicity ([8]; 25 μM, cultured 24 hours and 48 hours, FIG. 2): some cytotoxicity
cytotoxicity ([8]; 50 μm, cultured 24 hours and 48 hours, FIG. 2): some cytotoxicity
cytotoxicity ([8]; concentration of 10 μM or less): free of cytotoxicity
cells survived after UVB [9]: about 60%
c-fos mRNA [10]: increased
growth and proliferation of cells ([11]; 100 nM Okanin): significantly increased
growth and proliferation of cells ([11]; 1 μM Okanin): significantly increased
growth and proliferation of cells ([11]; 10 μM Okanin): significantly increased
